One experiment deals with PC3 cells. Put plainly: PC3 growth inhibition (Cell-titer glo, 72 hours). The experiment is classed as cell-based. To be noted: Homo sapiens, PC-3; compound concentration 1.667 μM; PC3 cells, 72 hours, Cell-titer glo; read-out: Percent Inhibition (PC3 growth inhibition). Summed up: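 PC3 cells in RPMI1640 seeded overnight at 37 °C, 5% CO2, then exposed to compound diluted in AIM serum-free medium for 72 h. Viability by CellTiter-Glo luminescence vs DMSO controls; single-concentration % remaining viability (1 μM or 1.667 μM), or GI50/LD50 from curves.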

A further experiment deals with hNAMPT protein (Homo sapiens (Human), UniProt P43490). Put plainly: NAMPT enzyme assay (TR-FRET/HTRF, BodiPY ligand, anti 6His-Tb). The experiment is classed as binding. The settings on record: for inhibition at 1 µM: NAMPT inhibition at compound concentration 1 μM, read-out: Percent Inhibition; for IC50: NAMPT inhibition, IC50 range class, read-out: IC50. In a few lines:
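TR-FRET binding assay in which His-tagged human NAMPT with anti-6His-Tb is displaced by compound from a BodiPY ligand, incubated 1 h at rt in the dark. Excitation was at 320 nm, with the 520/486 nm emission ratio read. IC50 was fitted from inhibition relative to DMSO controls.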
(In general: In TR-FRET formats the signal depends on donor and acceptor labels being close together.)

Experiment [1] concerns collagen-induced arthritis. To be noted: cited from earlier work.
Another experiment relates to activated T cells. The settings on record: cited from earlier work.
For experiment [2], the system named is experimental autoimmune encephalomyelitis (EAE). To be noted: model of T-cell mediated autoimmune disorders; cited from earlier work.

The structures appear in SMILES notation.

In general, inhibition refers to the change of the read-out against control, counted positive when it falls. One may read the IC50 as the point on the concentration scale where inhibition reaches its midpoint.

Chain of hNAMPT protein (P43490 whole entry): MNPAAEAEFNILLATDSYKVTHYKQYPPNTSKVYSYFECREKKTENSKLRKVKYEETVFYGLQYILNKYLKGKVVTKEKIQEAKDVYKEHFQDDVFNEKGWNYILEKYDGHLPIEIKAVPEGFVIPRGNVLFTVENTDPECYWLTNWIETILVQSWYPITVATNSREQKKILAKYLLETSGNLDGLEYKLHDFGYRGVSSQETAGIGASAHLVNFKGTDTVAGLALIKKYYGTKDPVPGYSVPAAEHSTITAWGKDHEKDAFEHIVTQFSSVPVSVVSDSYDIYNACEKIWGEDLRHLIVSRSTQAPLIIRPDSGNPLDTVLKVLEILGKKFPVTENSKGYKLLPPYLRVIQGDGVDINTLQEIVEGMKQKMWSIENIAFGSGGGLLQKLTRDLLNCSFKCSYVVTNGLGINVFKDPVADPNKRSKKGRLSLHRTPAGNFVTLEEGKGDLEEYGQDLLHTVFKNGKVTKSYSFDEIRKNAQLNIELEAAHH

Turning to `CN1CCCC1CCOc1nc2ccc(C(=O)NCCCc3ncc[nH]3)cc2nc1-c1ccc(F)cc1` (stereo not drawn) [Compound I-505, 3-(4-fluorophenyl)-N-[3-(1H-imidazol-2-yl)propyl]-2-[2-(1-methylpyrrolidin-2-yl)ethoxy]quinoxaline-6-carboxamide], in the experiment with PC3 cells, the inhibition at 1.667 µM was 3%. Also, at hNAMPT protein, the inhibition at 1 µM was > 99% and the IC50 is < 100 nM.

Regarding `CC(C)Oc1nc2ccc(C(=O)NCc3cn4cccnc4n3)cc2nc1-c1ccc(F)cc1` [Compound I-506, 3-(4-Fluorophenyl)-N-(imidazo[1,2-a]pyrimidin-2-ylmethyl)-2-isopropoxyquinoxaline-6-carboxamide], the inhibition at 1.667 µM in the experiment with PC3 cells is > 99%. Further, on hNAMPT protein, the inhibition at 1 µM came out at 78% and the IC50 fell in the range of 100 to 500 nM.

On to `Cc1ccc(F)c(-c2nc3cc(C(=O)NCCCc4ncc[nH]4)ccc3nc2-c2ccc(F)cc2)c1` [Compound I-507, 3-(2-fluoro-5-methylphenyl)-2-(4-fluorophenyl)-N-[3-(1H-imidazol-2-yl)propyl]quinoxaline-6-carboxamide], for which, in the experiment with PC3 cells, the inhibition at 1.667 µM was found to be 2%. Besides, on hNAMPT protein, the inhibition at 1 µM stood at 97% and the IC50 is < 100 nM.

For the compound `O=C(NCCCc1cn[nH]c1)c1ccc2nc(-c3ccc(F)cc3)c(-c3ccc(F)cc3)nc2c1` [Compound I-508, 2,3-bis(4-fluorophenyl)-N-[3-(1H-pyrazol-4-yl)propyl]quinoxaline-6-carboxamide], in the experiment with PC3 cells, the inhibition at 1.667 µM worked out at 3%. At hNAMPT protein, the inhibition at 1 µM was determined as 73% and the half-inhibitory concentration (IC50) lay in the range of 100 to 500 nM.

As for `CN(C)CCOc1nc2ccc(C(=O)NCCCc3ncc[nH]3)cc2nc1-c1ccc(F)cc1` [Compound I-509, 2-[2-(dimethylamino)ethoxy]-3-(4-fluorophenyl)-N-[3-(1H-imidazol-2-yl)propyl]quinoxaline-6-carboxamide], the inhibition at 1.667 µM in the experiment on PC3 cells is 3%. On hNAMPT protein, the inhibition at 1 µM was 94% and the half-inhibitory concentration (IC50) was < 100 nM.

In the case of `CN1CCCC(COc2nc3ccc(C(=O)NCCCc4ncc[nH]4)cc3nc2-c2ccc(F)cc2)C1` (stereo not drawn) [Compound I-510, 3-(4-fluorophenyl)-N-[3-(1H-imidazol-2-yl)propyl]-2-[(1-methylpiperidin-3-yl)methoxy]quinoxaline-6-carboxamide], the inhibition at 1.667 µM with PC3 cells is 2%. On hNAMPT protein, the inhibition at 1 µM was determined as 98% and the IC50 was < 100 nM.

Regarding `COc1cccc(-c2nc3cc(C(=O)NCCCc4ncc[nH]4)ccc3nc2OC(C)C)c1` [Compound I-511, N-[3-(1H-imidazol-2-yl)propyl]-2-isopropoxy-3-(3-methoxyphenyl)quinoxaline-6-carboxamide], the inhibition at 1.667 µM with PC3 cells was 2%. On hNAMPT protein, the inhibition at 1 µM is > 99% and the IC50 was < 100 nM.

Take `COc1cc(F)cc(-c2nc3cc(C(=O)NCCCc4ncc[nH]4)ccc3nc2-c2ccc(F)cc2)c1` [Compound I-512, 3-(3-fluoro-5-methoxyphenyl)-2-(4-fluorophenyl)-N-[3-(1H-imidazol-2-yl)propyl]quinoxaline-6-carboxamide]: the inhibition at 1.667 µM in the experiment with PC3 cells was found to be 2%. For the same compound, on hNAMPT protein, the inhibition at 1 µM was determined as 92% and the IC50 was < 100 nM.

Take `CN1CCC(COc2nc3ccc(C(=O)NCCCc4ncc[nH]4)cc3nc2-c2ccc(F)cc2)C1` (stereo not drawn) [Compound I-513, 3-(4-fluorophenyl)-N-[3-(1H-imidazol-2-yl)propyl]-2-[(1-methylpyrrolidin-3-yl)methoxy]quinoxaline-6-carboxamide]: the inhibition at 1.667 µM with PC3 cells stood at 3%. At hNAMPT protein, the inhibition at 1 µM came out at 99% and the IC50 was < 100 nM.

Turning to `O=C(NCCCc1ncc[nH]1)c1ccc2nc(OC3CCNCC3)c(-c3ccc(F)cc3)nc2c1` [Compound I-514, 3-(4-fluorophenyl)-N-[3-(1H-imidazol-2-yl)propyl]-2-(piperidin-4-yloxy)quinoxaline-6-carboxamide], in the experiment with PC3 cells, the inhibition at 1.667 µM came to 3%. Further, at hNAMPT protein, the inhibition at 1 µM was determined as 97% and the concentration for half-maximal inhibition (IC50) is < 100 nM.

For the compound `COc1cc(-c2nc3cc(C(=O)NCCCc4nnc[nH]4)ccc3nc2-c2ccc(F)cc2)c(F)cn1` [Compound I-515, 3-(5-fluoro-2-methoxypyridin-4-yl)-2-(4-fluorophenyl)-N-[3-(4H-1,2,4-triazol-3-yl)propyl]quinoxaline-6-carboxamide], in the experiment with PC3 cells, the inhibition at 1.667 µM was 1%. Further, at hNAMPT protein, the inhibition at 1 µM was 75% and the IC50 was in the range of 100 to 500 nM.

Consider `COc1cc(-c2nc3cc(C(=O)NCc4nc5cnccc5[nH]4)ccc3nc2-c2ccc(F)cc2)c(F)cn1` [Compound I-516, 3-(5-fluoro-2-methoxypyridin-4-yl)-2-(4-fluorophenyl)-N-(1H-imidazo[4,5-c]pyridin-2-ylmethyl)quinoxaline-6-carboxamide], for which the inhibition at 1.667 µM with PC3 cells amounted to 1%. In addition, on hNAMPT protein, the inhibition at 1 µM was determined as 93% and the half-maximal inhibitory concentration (IC50) is < 100 nM.

For the compound `CCOc1cc(-c2nc3cc(C(=O)NCCCc4ncc[nH]4)ccc3nc2-c2ccc(F)cc2)c(F)cn1` [Compound I-517, 3-(2-ethoxy-5-fluoropyridin-4-yl)-2-(4-fluorophenyl)-N-[3-(1H-imidazol-2-yl)propyl]quinoxaline-6-carboxamide], the inhibition at 1.667 µM with PC3 cells amounted to 1%. On hNAMPT protein, the inhibition at 1 µM came to 76% and the IC50 was in the range of 100 to 500 nM.

As to `CC(C)Oc1cc(-c2nc3cc(C(=O)NCCCc4ncc[nH]4)ccc3nc2-c2ccc(F)cc2)c(F)cn1` [Compound I-518, 3-(5-fluoro-2-isopropoxypyridin-4-yl)-2-(4-fluorophenyl)-N-[3-(1H-imidazol-2-yl)propyl]quinoxaline-6-carboxamide], the inhibition at 1.667 µM in the experiment with PC3 cells was found to be 1%. In addition, at hNAMPT protein, the inhibition at 1 µM came out at 86% and the concentration for half-maximal inhibition (IC50) fell in the range of 100 to 500 nM.

For `COc1cc(-c2nc3cc(C(=O)NCCCc4nccn4C)ccc3nc2-c2ccc(F)cc2)c(F)cn1` [Compound I-519, 3-(5-fluoro-2-methoxypyridin-4-yl)-2-(4-fluorophenyl)-N-[3-(1-methyl-1H-imidazol-2-yl)propyl]quinoxaline-6-carboxamide], the inhibition at 1.667 µM with PC3 cells came out at 99%. Moreover, at hNAMPT protein, the inhibition at 1 µM was determined as 97% and the half-maximal inhibitory concentration (IC50) was < 100 nM.

For the compound `O=C(NCCCc1nnc[nH]1)c1ccc2nc(-c3ccc(F)cc3)c(-c3cc(Cl)ccc3F)nc2c1` [Compound I-520, 3-(5-chloro-2-fluorophenyl)-2-(4-fluorophenyl)-N-[3-(4H-1,2,4-triazol-3-yl)propyl]quinoxaline-6-carboxamide], the inhibition at 1.667 µM in the experiment on PC3 cells was 1%. Moreover, on hNAMPT protein, the inhibition at 1 µM came to 89% and the IC50 was < 100 nM.

Turning to `O=C(/C=C/c1cccnc1)NCCCCC1CCN(C(=O)c2ccccc2)CC1` [FK866], the “efficacy in animal models of arthritis” value in experiment [1] is given as “efficacious”. In addition, the “effect on activated T cells” value with activated T cells was “selectively block proliferation and induce apoptosis of activated T cells”. Further, in experiment [2], the “effect on manifestations of EAE” value was “ameliorated the manifestations of experimental autoimmune encephalomyelitis”.

The values above are taken from patent US10144742B2 (Millennium Pharmaceuticals, Inc., priority 2014, dated 2018).
